{"source": "paper PMC6864590", "about": "“Planar Cell Polarity Effector Proteins Inturned and Fuzzy Form a Rab23 GEF Complex” (Current Biology, 2019)", "key": {"[1]": {"target": "T1, Rab23 (Homo sapiens, UniProt Q9ULC3)", "T1 construct": "hexahistidine-GST-tagged (pFAT2), expressed in E. coli BL21(DE3) pRIL, Ni-NTA purified, tags kept", "T1 sequence (Q9ULC3 1-237 limits assumed)": "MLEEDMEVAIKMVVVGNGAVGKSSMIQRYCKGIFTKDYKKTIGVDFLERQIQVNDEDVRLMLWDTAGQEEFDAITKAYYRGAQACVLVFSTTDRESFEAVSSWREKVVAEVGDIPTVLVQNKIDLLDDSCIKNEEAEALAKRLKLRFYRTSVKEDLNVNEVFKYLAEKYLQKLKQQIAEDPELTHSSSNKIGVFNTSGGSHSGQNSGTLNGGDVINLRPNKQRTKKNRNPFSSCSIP", "assay": "basal GTP hydrolysis endpoint, charcoal assay", "assay_type": "biochemical", "conditions": "labelled compound; 30°C, 60 min, no GAP"}, "[2]": {"target": "T2, Rab23 (Homo sapiens, UniProt Q9ULC3, C85R)", "T2 construct": "hexahistidine-GST-tagged (pFAT2), expressed in E. coli BL21(DE3) pRIL, Ni-NTA purified, tags kept", "T2 sequence (Q9ULC3 1-237 C85R limits assumed)": "T1 sequence (Q9ULC3 1-237 limits assumed) with C85R", "assay": "basal GTP hydrolysis endpoint, charcoal assay", "assay_type": "biochemical", "conditions": "labelled compound; 30°C, 60 min, no GAP"}, "[3]": {"target": "T3, Rab23 (Homo sapiens, UniProt Q9ULC3, N121I)", "T3 construct": "hexahistidine-GST-tagged (pFAT2), expressed in E. coli BL21(DE3) pRIL, Ni-NTA purified, tags kept", "T3 sequence (Q9ULC3 1-237 N121I limits assumed)": "T1 sequence (Q9ULC3 1-237 limits assumed) with N121I", "assay": "basal GTP hydrolysis endpoint, charcoal assay", "assay_type": "biochemical", "conditions": "labelled compound; 30°C, 60 min, no GAP"}, "[4]": {"target": "T4, Rab23 (Homo sapiens, UniProt Q9ULC3, M12K)", "T4 construct": "hexahistidine-GST-tagged (pFAT2), expressed in E. coli BL21(DE3) pRIL, Ni-NTA purified, tags kept", "T4 sequence (Q9ULC3 1-237 M12K limits assumed)": "T1 sequence (Q9ULC3 1-237 limits assumed) with M12K", "assay": "basal GTP hydrolysis endpoint, charcoal assay", "assay_type": "biochemical", "conditions": "labelled compound; 30°C, 60 min, no GAP"}, "[5]": {"target": "T1, Rab23", "assay": "[3H]-GDP release GEF endpoint assay, glutathione-Sepharose capture", "assay_type": "binding", "conditions": "labelled compound; Intu-Fuz GEF, Mg-GTP, pH 6.8, 30°C"}, "[6]": {"target": "T5, Rab32 (Homo sapiens, UniProt Q13637)", "T5 construct": "GST-tagged (pFAT2), expressed in E. coli BL21(DE3) pRIL, Ni-NTA purified", "T5 sequence (Q13637 2-225)": "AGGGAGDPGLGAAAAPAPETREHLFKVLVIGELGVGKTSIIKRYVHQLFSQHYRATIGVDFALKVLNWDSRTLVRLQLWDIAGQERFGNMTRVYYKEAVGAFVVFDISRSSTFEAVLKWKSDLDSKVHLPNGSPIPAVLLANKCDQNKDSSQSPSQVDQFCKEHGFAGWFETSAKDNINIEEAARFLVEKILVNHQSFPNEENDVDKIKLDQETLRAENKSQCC", "assay": "[3H]-GDP release GEF endpoint assay, glutathione-Sepharose capture", "assay_type": "binding", "conditions": "labelled compound; Hps1-Hps4 GEF, Mg-GTP, pH 6.8, 30°C"}, "[7]": {"target": "T4, Rab23", "assay": "radiolabelled nucleotide binding, GST pull-down", "conditions": "labelled compound; pH 6.8"}, "[8]": {"target": "T2, Rab23", "assay": "radiolabelled nucleotide binding, GST pull-down", "conditions": "labelled compound; pH 6.8"}, "[9]": {"target": "T3, Rab23", "assay": "radiolabelled nucleotide binding, GST pull-down", "conditions": "labelled compound; pH 6.8"}, "[10]": {"target": "T6, Rab38 (Homo sapiens, UniProt P57729)", "T6 construct": "GST-tagged (pFAT2), expressed in E. coli BL21(DE3) pRIL, Ni-NTA purified", "T6 sequence (P57729 1-211)": "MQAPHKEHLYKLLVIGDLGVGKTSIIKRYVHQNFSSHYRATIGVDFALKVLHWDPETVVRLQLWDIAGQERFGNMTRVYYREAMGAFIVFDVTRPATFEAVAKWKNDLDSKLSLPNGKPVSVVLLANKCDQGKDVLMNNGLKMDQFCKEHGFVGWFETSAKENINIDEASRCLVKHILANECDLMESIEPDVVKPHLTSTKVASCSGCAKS", "assay": "[3H]-GDP release GEF endpoint assay, glutathione-Sepharose capture", "assay_type": "binding", "conditions": "labelled compound; Hps1-Hps4 GEF, Mg-GTP, pH 6.8, 30°C"}, "[11]": {"target": "T7, Rab7 (Homo sapiens, UniProt P51149)", "T7 construct": "gene RAB7A; GST-tagged (pFAT2), expressed in E. coli BL21(DE3) pRIL, Ni-NTA purified", "T7 sequence (P51149 2-207)": "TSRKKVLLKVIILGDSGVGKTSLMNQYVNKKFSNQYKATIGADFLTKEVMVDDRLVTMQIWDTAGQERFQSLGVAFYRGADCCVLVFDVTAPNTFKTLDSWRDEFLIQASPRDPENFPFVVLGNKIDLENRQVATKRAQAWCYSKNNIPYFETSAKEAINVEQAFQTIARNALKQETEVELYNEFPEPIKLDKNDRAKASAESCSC", "assay": "[3H]-GDP release GEF endpoint assay, glutathione-Sepharose capture", "assay_type": "binding", "conditions": "labelled compound; Mon1-Ccz1 GEF, Mg-GTP, pH 6.8, 30°C"}}, "note": "Residue numbers refer to the chain shown, from its start."}
{"smiles": "Nc1nc2c(ncn2[C@@H]2O[C@H](COP(=O)(O)OP(=O)(O)OP(=O)(O)O)[C@@H](O)[C@H]2O)c(=O)[nH]1", "note": "[GTP]", "values": [{"measurement": "GTP hydrolysis", "setting": "[1]", "result": "show an increased rate of basal GTP-hydrolysis (Figure S3H)"}, {"measurement": "GTP hydrolysis", "setting": "[2]", "result": "show an increased rate of basal GTP-hydrolysis (Figure S3H)"}, {"measurement": "GTP hydrolysis", "setting": "[3]", "result": "show an increased rate of basal GTP-hydrolysis (Figure S3H)"}, {"measurement": "GTP hydrolysis", "setting": "[4]", "result": "show an increased rate of basal GTP-hydrolysis (Figure S3H)"}]}
{"smiles": "Nc1nc2c(ncn2[C@@H]2O[C@H](COP(=O)(O)OP(=O)(O)O)[C@@H](O)[C@H]2O)c(=O)[nH]1", "note": "[GDP]", "values": [{"measurement": "GDP-GTP exchange (pmol)", "setting": "[5]", "result": "Intu-Fuz complexes show specific GEF activity toward Rab23"}, {"measurement": "GDP-GTP exchange (pmol)", "setting": "[6]", "result": "comparable to the Rab7 and Rab32/38-specific GEFs Mon1-Ccz1 and Hps1-Hps4, respectively (Figure 1D)"}, {"measurement": "GDP binding", "setting": "[7]", "result": "Both Rab23^N121I and the two disease-associated mutants have reduced GDP-binding properties (Figure S3G)"}, {"measurement": "GDP binding", "setting": "[8]", "result": "Both Rab23^N121I and the two disease-associated mutants have reduced GDP-binding properties (Figure S3G)"}, {"measurement": "GDP binding", "setting": "[9]", "result": "Both Rab23^N121I and the two disease-associated mutants have reduced GDP-binding properties (Figure S3G)"}, {"measurement": "GDP-GTP exchange (pmol)", "setting": "[10]", "result": "comparable to the Rab7 and Rab32/38-specific GEFs Mon1-Ccz1 and Hps1-Hps4, respectively (Figure 1D)"}, {"measurement": "GDP-GTP exchange (pmol)", "setting": "[11]", "result": "comparable to the Rab7 and Rab32/38-specific GEFs Mon1-Ccz1 and Hps1-Hps4, respectively (Figure 1D)"}]}
